Blank lines part the entries; values can stand above or below the molecule they belong to.
Test: solvent given as SMILES

fluorescence lifetime (in ClCCl): 7.1 ns
SMILES: COc1ccc(-c2c3ccccc3c(C#Cc3ccccc3)c3cc4cc(C)sc4cc23)cc1

fluorescence lifetime (in ClCCl): 4.89 ns
SMILES: F[B-]1(F)n2c(cc3c4ccccc4c4ccccc4c32)-c2ccc3ccccc3[n+]21

fluorescence lifetime (in C1CCCCC1): 0.058 ns
SMILES: Brc1c(Br)c2ccc3c(Br)c(Br)c4ccc5ccc1c1c5c4c3c21

fluorescence lifetime (in CC#N): 1.09 ns
fluorescence lifetime (in CCCCCC): 0.4 ns
SMILES: C(=C\c1ccc2ccccc2c1)/c1ccc(N(c2ccccc2)c2ccccc2)cc1

fluorescence lifetime (in ClCCl): 12.1 ns
SMILES: COc1ccc(-c2c3ccccc3c(-c3ccc(OC)cc3)c3cc4ccccc4cc23)cc1

fluorescence lifetime (in CC#N): 1.86 ns
fluorescence lifetime (in CCCCCC): 0.62 ns
SMILES: CN(c1ccccc1)c1ccc(/C=C/c2ccccc2)cc1

fluorescence lifetime (in ClCCl): 0.3 ns
SMILES: CC1=C(c2ccc(N(c3ccccc3)c3ccccc3)cc2)C(C)=[N+]2C1=C(c1c(-c3ccccn3)nc3ccccn13)c1c(C)c(-c3ccc(N(c4ccccc4)c4ccccc4)cc3)c(C)n1[B-]2(F)F

The next lines start with the molecule.

SMILES: c1ccc(N2c3ccc4ccccc4c3-c3c4ccccc4nc[n+]3[B-]2(c2ccccc2)c2ccccc2)cc1
fluorescence lifetime (in C1CCC2CCCCC2C1): 3.42 ns
fluorescence lifetime (in C1CCCCC1): 3.43 ns
fluorescence lifetime (in C1CCOC1): 0.54 ns
fluorescence lifetime (in CC#N): 0.21 ns
fluorescence lifetime (in CC(C)=O): 0.21 ns
fluorescence lifetime (in CCCCCC): 3.4 ns
fluorescence lifetime (in CCOC(C)=O): 0.57 ns
fluorescence lifetime (in Cc1ccccc1): 1.56 ns
fluorescence lifetime (in ClC(Cl)Cl): 0.49 ns

SMILES: CC1=CC(/C=C/c2ccc(N(C)C)cc2)=[N+]2C1=C(c1ccc(C#CCO[C@@H]3O[C@H](CO)[C@@H](O)C(O)[C@H]3O)cc1)c1c(C)cc(/C=C/c3ccc(N(C)C)cc3)n1[B-]2(F)F (some centres undefined)
fluorescence lifetime (in CC#N): 2.3 ns

SMILES: CC(C)(C)c1ccc(-c2nnc(-c3c(-n4c5ccccc5c5ccccc54)c(-n4c5ccccc5c5ccccc54)c(-n4c5ccccc5c5ccccc54)c(-n4c5ccccc5c5ccccc54)c3-n3c4ccccc4c4ccccc43)o2)cc1
fluorescence lifetime (in Cc1ccccc1): 2.9 ns

SMILES: CCOC(=O)c1ccc(C2=CC3=c4cc(-c5ccc(C(=O)OCC)cc5)c5nc(C(F)(F)C(F)(F)C(F)(F)F)nc6c(-c7ccc(C(=O)OCC)cc7)cc(c4c65)C4=CC(c5ccc(C(=O)OCC)cc5)=C5N=C(C(F)(F)C(F)(F)C(F)(F)F)N=C2C5C43)cc1 (centres undefined)
fluorescence lifetime (in C1CCOC1): 2.8 ns

SMILES: CCOC(=O)c1ccc2c(c1)sc1c3ccc(C(=O)OCC)cc3sc21
fluorescence lifetime (in CCCO): 0.35 ns

SMILES: Cc1cc(C)c(B2c3cc(C)ccc3N3c4ccc(C)cc4B(c4c(C)cc(C)cc4C)c4cc(C)cc2c43)c(C)c1
fluorescence lifetime (in Cc1ccccc1-c1cccc(Oc2cc3c4c(c2)Oc2cc(-c5ccccc5C)ccc2B4c2ccc(-c4ccccc4C)cc2O3)c1): 6.9 ns

SMILES: Fc1nc(F)c(F)c(C#Cc2cc3c(cc2C#Cc2c(F)c(F)nc(F)c2F)OC2(CCCCC2)O3)c1F
fluorescence lifetime (in CC#N): 5.3 ns

SMILES: F[B-]1(F)n2c(/C=C/c3ccc(C(=C(c4ccccc4)c4ccccc4)c4ccccc4)cc3)ccc2C(c2ccc(C(=C(c3ccccc3)c3ccccc3)c3ccccc3)cc2)=C2C=CC(/C=C/c3ccc(C(=C(c4ccccc4)c4ccccc4)c4ccccc4)cc3)=[N+]21
fluorescence lifetime (in C1CCOC1): 3.89 ns

SMILES: Cc1c2oc3c(C)c(N)cc(C(=O)NC4OC(=O)C(C(C)C)N(C)C(=O)CN(C)C(=O)C5CCCN5C(=O)C(C(C)C)NC4=O)c3nc-2c(C(=O)NC2OC(=O)C(C(C)C)N(C)C(=O)CN(C)C(=O)C3CCCN3C(=O)C(C(C)C)NC2=O)c(N)c1=O (centres undefined)
fluorescence lifetime (in C1CCCCC1): 1.07 ns
fluorescence lifetime (in CC#N): 1.54 ns
fluorescence lifetime (in CC(=O)O): 0.49 ns
fluorescence lifetime (in CC(C)=O): 0.93 ns
fluorescence lifetime (in CCCCO): 1.5 ns
fluorescence lifetime (in CCCCOC(C)=O): 1.1 ns
fluorescence lifetime (in CCCO): 1.34 ns
fluorescence lifetime (in CCN(CC)CC): 0.62 ns
fluorescence lifetime (in CCO): 1.22 ns
fluorescence lifetime (in CCOC(C)=O): 1.19 ns
fluorescence lifetime (in CO): 0.5 ns
fluorescence lifetime (in CS(C)=O): 1.8 ns
fluorescence lifetime (in Cc1ccccc1): 1.23 ns
fluorescence lifetime (in ClC(Cl)Cl): 1.02 ns
fluorescence lifetime (in ClCCCl): 1.16 ns
fluorescence lifetime (in O): 0.75 ns
fluorescence lifetime (in O=[N+]([O-])c1ccccc1): 0.37 ns
fluorescence lifetime (in [2H]O[2H]): 1.08 ns
fluorescence lifetime (in c1ccccc1): 1.22 ns
fluorescence lifetime (in c1ccncc1): 1.53 ns

SMILES: C(=C\N1CCCC1)/c1nc2ccccc2nc1-c1ccccc1
fluorescence lifetime (in C1CCCCC1): 2.3 ns
fluorescence lifetime (in C1CCOC1): 8.42 ns
fluorescence lifetime (in CC#N): 5.28 ns
fluorescence lifetime (in CC(C)=O): 6.88 ns
fluorescence lifetime (in CCO): 0.49 ns
fluorescence lifetime (in CO): 0.15 ns
fluorescence lifetime (in CS(C)=O): 2.97 ns
fluorescence lifetime (in Cc1ccccc1): 6.52 ns
fluorescence lifetime (in ClCCl): 10.2 ns
